Results published in patent publication US20230082611A1, “COMPOSITIONS AND METHODS FOR THE TREATMENT OF RESPIRATORY SYNCYTIAL VIRUS” (Cidara Therapeutics, Inc., priority 2019, published 2023).
pEC50: −log10 of the molar value.

Assays:
Type in all cases: cell-based
RSV Long strain = assay: RSV microneutralization assay, RSV Long strain; conditions: human respiratory syncytial virus; MOI 0.002, HEp-2 cells, day 6; read-out: RSV Long EC50
Method: (§1) Duplicate 10-fold serial dilutions of compound in DMEM with 2% HI-FBS, 1× P/S, 2 mM L-Gln were prepared in 96-well tissue culture plates at 60 μL/well. The RSV Long strain (RetroVirox, San Diego), RSV A2 strain (Virapur, San Diego), RSV B1 strain (RetroVirox, San Diego), or RSV strain CH18537 (RetroVirox, San Diego), were diluted in DMEM with 2% HI-FBS, 1× P/S, 2 mM L-Gln and 60 μL/well added to 60 μL compound for a multiplicity of infection (MOI) of 0.002 (Long, A2), 0.003 (B1), or 0.004 (CH18537). Virus only (no drug) and cells only (no virus, no drug) controls were included on each plate. The compound-virus mix was incubated for 1 h at 37° C. and 5% CO2. After 1 h, medium was removed from HEp-2 cells by aspiration and wells washed once with 100 μL/well 1×PBS pH 7.4 (Fisher cat #MT21040CM). The compound-virus mix (100 μL/well) was added to the cells and incubated for 1 h at 37° C. and 5% CO2 prior to addition of 100 μL/well of DMEM with 2% HI-FBS, 1× P/S, 2 mM L-Gln (200 μL final vol) and incubation at 37° C. and 5% CO2. On day 6 post infection, supernatant was aspirated and cells fixed with 100 μL/well ice-cold 80% acetone in 1×PBS for 20 min at 4° C. The acetone was aspirated and plates air-dried for 20 min at room temperature. The plates were washed 3× with 200 μL/well 1×PBS, 0.05% Tween-20 (PBST) and blocked with 200 μL/well 5% non-fat dry milk (Fisher cat #50-195-952) in PBST for 1 h with shaking (500 rpm) on an orbital plate shaker. The blocking solution was discarded and cells incubated with 100 μL/well mouse anti-F protein antibody (MilliporeSigma cat #MAB8599) diluted 1:2,000 in diluent (blocking solution diluted 1:1 in 1×PBS pH 7.4) for 2 h with shaking. Plates were washed 5× with 300 μL/well PBST and incubated with 100 μL/well HRP-conjugated goat anti-mouse IgG antibody (SouthernBiotech cat #1030-05) diluted 1:1,000 in diluent for 1 h with shaking. Plates were washed 5× with 300 μL/well PBST and incubated with 100 μL/well TMB substrate (Fisher cat #BDB555214) for ˜5 min. The reaction was stopped with 100 μL/well 1N H2SO4. Absorbance was read at 450 nm with an EnSpire multimode plate reader (PerkinElmer). The mean A450 for the cells only control was subtracted from all A450 values, and the percent virus neutralisation calculated for each compound concentration, relative to the virus only control.

RSV A2 strain = assay: RSV microneutralization assay, RSV A2 strain; conditions: human respiratory syncytial virus; MOI 0.002, HEp-2 cells, day 6
Method: as §1, with “HEp-2 cells (ATCC #CCL-23) were seeded at 5E4/well/200 μL in DMEM (Fisher cat #11965118) supplemented with 10% heat-inactivated (HI) fetal bovine serum (HI-FBS; Fisher cat #10-082-147), 1× penicillin-streptomycin (P/S, 100 μg/mL; Fisher cat #MT30002C), and 1× L-glutamine (L-Gln, 2 mM; Fisher cat #25030-164) in 96-well tissue culture treated plates (Fisher cat #08-772-17) and incubated overnight at 37° C. and 5% CO2. Duplicate” for “Duplicate”

RSV Long = assay: RSV plaque reduction assay, RSV Long; conditions: human respiratory syncytial virus, HEP-2 cells, 6 days, read-out: EC50 RSV Long MOI 0.0001
Method: (§2) An RSV plaque reduction assay was performed according to the following protocol. On Day 1, HEP-2 cells were seeded in 24-well plates at 5×10E5 cells/well/500 ul. On Day 2, once the cells are at 100% confluency, the cells were infected at a viral dilution of approximately 30 plaques per well in DMEM+2% FBS infection buffer and treated with compound. The medium was aspirated and cells were infected with 90 ul of viral dilution per well. Then, cells were treated with 10 ul of 10× compound resulting in a final concentration of between 1 nM-10 uM of the compound. The cells were incubated for 2 h at room temperature, rocking every 15 minutes. After 2 h, the inoculum/compound mixture is removed. 450 ul of overlay media (1 part Avicel 2.5%; 1 part DMEM+2% FBS) was added to the well and the cells were treated with 50 ul of 10× compound resulting in a final concentration of 1 nM-10 uM of the compound. The cells were incubated for 6 days at 37 deg C.
(§3) For staining and quantification: The infected cell plates were fixed with 100% methanol for 10 to 30 minutes. The plates were washed three times with 5% milk/PBS, 1 mL/well. A primary antibody, goat anti-RSV polyclonal antibody (Chemicon Cat #AB1128), diluted in 5% milk/PBS at 1:1000 was put onto each well. […] The plates were rinsed 3 times with deionized water, air-dried and the number of plaques was counted.

RSV B1 = assay: RSV plaque reduction assay, RSV B1; conditions: human respiratory syncytial virus, HEP-2 cells, 6 days, read-out: EC50 RSV B1 MOI 0.0001
Method: as §2, §3

pEC50 (RSV Long strain): 9.66
pEC50 (RSV A2 strain): 9.06
pEC50 (RSV Long): 7.77
pEC50 (RSV B1): 7.89
SMILES: C#CCOCCOCCOCCOCCOCCCCn1c(CN2C(=O)C3(CCN(C(=O)OC(C)(C)C)CC3)c3ccncc32)nc2cc(Cl)ccc21 [Int-42]
